Starred links: 1 amine or outer side, 2 acyl side, 3 side chain; linkers in the order of their positions; H or OH if unused. Positions of bridges follow the written chain, without caps; N, C: chain ends. Non-standard residues stand in square brackets, D forms with d. Residues, ends and D or L forms follow the SMILES beside them. Naphthalene(2,6-diCH2) = c1cc2cc(C[*:2])ccc2cc1C[*:1]; Pro(trans-4-cHex) = O=C(O)[C@@H]1C[C@@H](C2CCCCC2)CN1; X25 = O=C([C@H](Cc1cccc(OCC=[*:3])c1)N[*:1])[*:2]; Pro(4R-Bn) = O=C(O)[C@@H]1C[C@@H](Cc2ccccc2)CN1; Trp(5-F) = N[C@@H](Cc1c[nH]c2ccc(F)cc12)C(=O)O; Trp(7-aza) = N[C@@H](Cc1c[nH]c2ncccc12)C(=O)O; NMePhe(4-F) = CN[C@@H](Cc1ccc(F)cc1)C(=O)O; X3 = O=C(CCSCc1cc(F)cc(CSCCN[*:1])c1)[*:2]; X42 = CN([C@@H](CCC=[*:3])C(=O)[*:2])[*:1]; mXylylene(5-F) = Fc1cc(C[*:1])cc(C[*:2])c1; X4 = O=C(CCSCc1cccc(CSCCN[*:1])c1)[*:2]; 1Nal = N[C@@H](Cc1cccc2ccccc12)C(=O)O; mXylylene = c1cc(C[*:1])cc(C[*:2])c1; NMeD = CN[C@@H](CC(=O)O)C(=O)O; NMeV = CN[C@H](C(=O)O)C(C)C; αMeP = C[C@@]1(C(=O)O)CCCN1; Orn = NCCC[C@H](N)C(=O)O; Nva = CCC[C@H](N)C(=O)O; Mpa = O=C(O)CCS; Sar = CNCC(=O)O
Target: human PCSK9 / human LDLR EGFa domain interaction (Homo sapiens (Human), UniProt Q8NBP7)
Test: TR-FRET assay of inhibition of the PCSK9-LDLR protein-protein interaction
Format: binding
Details: TR-FRET, 20 nM human PCSK9, 20 nM human LDLR EGFa domain, 2 hours room temperature; read-out: IC50
Protocol: A time-resolved fluorescence resonance energy (TR-FRET) assay was used to measure inhibition of the PCSK9-LDLR protein-protein interaction. Briefly, 20 nM avitag-biotinylated human PCSK9 was incubated with 20 nM his-tagged human LDLR EGFa domain in the presence of 5 nM LANCE Ulight Streptavidin (Perkin Elmer) and 5 nM europium-Anti-6×His (Perkin Elmer) for 2 hours covered at room temperature in buffer containing 50 mM HEPES, 150 mM NaCl, 5 mM CaCl2), 0.01% BSA and 0.01% Surfactant P20. Compounds were tested in dose-response and concentrations giving half-maximal inhibition calculated using a 4-parameter fit equation.

Chain of human PCSK9 / human LDLR EGFa domain interaction (Q8NBP7 153-692): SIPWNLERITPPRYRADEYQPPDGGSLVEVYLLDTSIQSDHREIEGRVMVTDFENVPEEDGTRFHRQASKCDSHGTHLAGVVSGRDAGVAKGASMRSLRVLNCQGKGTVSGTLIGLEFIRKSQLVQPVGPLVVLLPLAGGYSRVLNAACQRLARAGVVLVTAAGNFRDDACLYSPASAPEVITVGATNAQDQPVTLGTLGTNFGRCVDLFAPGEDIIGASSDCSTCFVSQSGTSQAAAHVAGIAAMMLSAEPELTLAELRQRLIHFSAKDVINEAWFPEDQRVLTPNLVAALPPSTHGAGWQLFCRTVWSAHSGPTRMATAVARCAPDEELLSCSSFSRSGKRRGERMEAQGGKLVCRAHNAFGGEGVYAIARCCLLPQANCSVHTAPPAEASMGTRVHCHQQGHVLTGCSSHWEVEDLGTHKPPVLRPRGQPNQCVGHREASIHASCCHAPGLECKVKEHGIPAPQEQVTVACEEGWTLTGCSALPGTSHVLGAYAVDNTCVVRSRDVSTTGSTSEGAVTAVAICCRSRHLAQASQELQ
Chain of human PCSK9 / human LDLR EGFa domain interaction (Q8NBP7 31-152 partner): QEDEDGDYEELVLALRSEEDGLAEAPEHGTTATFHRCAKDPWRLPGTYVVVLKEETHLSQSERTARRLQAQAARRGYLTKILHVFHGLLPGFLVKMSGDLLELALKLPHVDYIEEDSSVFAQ

| Compound | IC50 |
| --- | --- |
| C[C@H]1NC(=O)[C@H](CCCCN)NC(=O)CCSCc2cccc(c2)CSCCNC(=O)[C@]2(C)CCCN2C(=O)[C@H](Cc2c[nH]c3ncccc23)NC(=O)[C@H](Cc2cnc[nH]2)NC(=O)[C@H](CC(=O)O)NC(=O)[C@H](Cc2c[nH]c3ccc(F)cc23)NC(=O)[C@H](Cc2c[nH]c3ccc(F)cc23)NC1=O [Compound 247] (cyclo(DH[Trp(7-aza)][αMeP][X4]K[dA][Trp(5-F)][Trp(5-F)])) | 0.1 to 1 µM |
| NCCCC[C@@H]1NC(=O)CCCn2cc(nn2)CC[C@@H](C(N)=O)NC(=O)[C@@H]2CCCN2C(=O)[C@H](Cc2ccc(O)cc2)NC(=O)[C@H](Cc2c[nH]cn2)NC(=O)[C@H](CC(=O)O)NC(=O)[C@H](Cc2c[nH]c3ccc(F)cc23)NC(=O)[C@H](Cc2c[nH]c3ccc(F)cc23)NC(=O)CNC1=O [Compound 186] | 0.1 to 1 µM |
| CCC[C@H](NC(C)=O)C(=O)N[C@H](Cc1c[nH]cn1)C(=O)N(C)[C@@H](Cc1ccc(F)cc1)C(=O)N[C@H]1CSCc2cccc(c2)CSC[C@@H](C(N)=O)NC(=O)[C@@H]2CCCN2C(=O)[C@H](Cc2ccc(O)cc2)NC(=O)[C@H](Cc2c[nH]cn2)NC(=O)[C@H](CC(=O)O)NC(=O)[C@H](Cc2c[nH]c3ccc(F)cc23)NC(=O)[C@H](Cc2c[nH]c3ccc(F)cc23)NC(=O)CNC(=O)[C@H](CCCCN)NC1=O [Compound 144] (Ac-[Nva][dH][NMePhe(4-F)]CKG[Trp(5-F)][Trp(5-F)]DHYPC-NH2; linker 4-13 via mXylylene) | 1 to 12.1 µM |
| CC(=O)N(C)[C@@H](Cc1ccc(F)cc1)C(=O)N[C@H]1CSCc2cccc(c2)CSC[C@@H](C(N)=O)NC(=O)[C@@H]2CCCN2C(=O)[C@H](Cc2ccc(O)cc2)NC(=O)[C@H](Cc2cnc[nH]2)NC(=O)[C@H](CC(=O)O)NC(=O)[C@H](Cc2c[nH]c3ccc(F)cc23)NC(=O)[C@H](Cc2c[nH]c3ccc(F)cc23)NC(=O)CNC(=O)[C@H](CCCCN)NC1=O [Compound 147] (Ac-[NMePhe(4-F)]CKG[Trp(5-F)][Trp(5-F)]DHYPC-NH2; linker 2-11 via mXylylene) | 0.1 to 1 µM |
| COc1ccc(C[C@@H]2NC(=O)[C@H]([C@@H](C)OC)NC(=O)[C@@H]3CC/C=C\COc4cccc(c4)C[C@H](NC(=O)[C@@H](C)NC(=O)[C@H](C)NC(=O)CCSCc4cc(F)cc(c4)CSCCNC(=O)[C@]4(C)CCCN4C2=O)C(=O)N[C@@H](Cc2c[nH]c4ccc(F)cc24)C(=O)N3C)cc1 [Compound 505] (cyclo(A[dA][X25][Trp(5-F)][X42]T(Me)Y(Me)[αMeP][X3]); staple (Z) 3-5) | 0.1 to 1 µM |
| NCCCC[C@@H]1NC(=O)CCSCc2ccc3cc(ccc3c2)CSC[C@@H](C(N)=O)NC(=O)[C@@H]2CCCN2C(=O)[C@H](Cc2ccc(O)cc2)NC(=O)[C@H](Cc2c[nH]cn2)NC(=O)[C@H](CC(=O)O)NC(=O)[C@H](Cc2c[nH]c3ccc(F)cc23)NC(=O)[C@H](Cc2c[nH]c3ccc(F)cc23)NC(=O)CNC1=O [Compound 203] ([Mpa]KG[Trp(5-F)][Trp(5-F)]DHYPC-NH2; linker 1-10 via Naphthalene(2,6-diCH2)) | 1 to 12.1 µM |
| C[C@@H]1NC(=O)CCSCc2cccc(c2)CSC[C@@H](C(N)=O)NC(=O)[C@]2(C)CCCN2C(=O)[C@H](Cc2ccc(O)cc2)NC(=O)[C@H](Cc2cnc[nH]2)NC(=O)[C@H](CC(=O)O)NC(=O)[C@H](Cc2c[nH]c3ccc(F)cc23)NC(=O)[C@H](Cc2c[nH]c3ccc(F)cc23)NC(=O)CNC1=O [Compound 308] ([Mpa]AG[Trp(5-F)][Trp(5-F)]DHY[αMeP]C-NH2; linker 1-10 via mXylylene) | 1 to 12.1 µM |
| NCCCC[C@@H]1NC(=O)CCSCc2cccc(c2)CSC[C@@H](C(N)=O)NC(=O)[C@@H]2CCCN2C(=O)[C@H](Cc2ccc(O)cc2)NC(=O)[C@H](Cc2c[nH]cn2)NC(=O)[C@H](CC(=O)O)NC(=O)[C@H](Cc2c[nH]c3ccc(F)cc23)NC(=O)[C@H](Cc2cccc3ccccc23)NC(=O)CNC1=O [Compound 209] ([Mpa]KG[1Nal][Trp(5-F)]DHYPC-NH2; linker 1-10 via mXylylene) | 1 to 12.1 µM |
| C[C@@H]1NC(=O)[C@H](CCCCN)NC(=O)CCSCc2cccc(c2)CSC[C@@H](C(N)=O)NC(=O)[C@@H]2CCCN2C(=O)[C@H](Cc2ccc(O)cc2)NC(=O)[C@H](Cc2cnc[nH]2)NC(=O)[C@H](CC(=O)O)NC(=O)[C@H](Cc2c[nH]c3ccc(F)cc23)NC(=O)[C@H](Cc2c[nH]c3ccc(F)cc23)NC1=O [Compound 156] ([Mpa]KA[Trp(5-F)][Trp(5-F)]DHYPC-NH2; linker 1-10 via mXylylene) | 1 to 12.1 µM |

Continued, values first:

| IC50 | Compound |
| --- | --- |
| 21 to 50 µM | CN1CC(=O)N[C@@H](Cc2c[nH]c3ccccc23)C(=O)N[C@@H](Cc2c[nH]c3ccccc23)C(=O)N(C)[C@@H](CC(=O)O)C(=O)N[C@@H](Cc2c[nH]cn2)C(=O)N[C@@H](Cc2ccc(O)cc2)C(=O)N2CCC[C@H]2C(=O)N[C@H](C(N)=O)CSCc2cccc(c2)CSCCC(=O)N[C@@H](CCCCN)C1=O [Compound 222] ([Mpa]K[Sar]WW[NMeD]HYPC-NH2; linker 1-10 via mXylylene) |
| 21 to 50 µM | NCCCC[C@@H]1NC(=O)CCSCc2cccc(c2)CSC[C@@H](C(N)=O)NC(=O)[C@@H]2CCCN2C(=O)[C@H](Cc2ccc(O)cc2)NC(=O)[C@@H](Cc2cnc[nH]2)NC(=O)[C@H](CC(=O)O)NC(=O)[C@H](Cc2c[nH]c3ccc(F)cc23)NC(=O)[C@H](Cc2c[nH]c3ccc(F)cc23)NC(=O)CNC1=O [Compound 163] ([Mpa]KG[Trp(5-F)][Trp(5-F)]D[dH]YPC-NH2; linker 1-10 via mXylylene) |
| 21 to 50 µM | C[C@H]1NC(=O)[C@H](Cc2ccc(O)cc2)NC(=O)[C@H](Cc2cnc[nH]2)NC(=O)[C@H](CC(=O)O)NC(=O)[C@H](Cc2c[nH]c3ccc(F)cc23)NC(=O)[C@H](Cc2c[nH]c3ccc(F)cc23)NC(=O)CNC(=O)[C@H](CCCCN)NC(=O)CCSCc2cccc(c2)CSC[C@@H](C(N)=O)NC1=O [Compound 320] ([Mpa]KG[Trp(5-F)][Trp(5-F)]DHY[dA]C-NH2; linker 1-10 via mXylylene) |
| 21 to 50 µM | C[C@@]12CCCN1C(=O)[C@H](Cc1ccc(O)cc1)NC(=O)[C@H](Cc1cnc[nH]1)NC(=O)[C@H](CC(=O)O)NC(=O)[C@H](Cc1c[nH]c3ccc(F)cc13)NC(=O)[C@H](Cc1c[nH]c3ccc(F)cc13)NC(=O)CNC(=O)[C@H](CCCCN)NC(=O)CCSCc1cc(F)cc(c1)CSC[C@@H](C(N)=O)NC2=O [Compound 287] ([Mpa]KG[Trp(5-F)][Trp(5-F)]DHY[αMeP]C-NH2; linker 1-10 via mXylylene(5-F)) |
| 21 to 50 µM | CN1CC(=O)N[C@H](C(N)=O)CSCc2cccc(c2)CSCCC(=O)N[C@@H](CCCCN)C(=O)NCC(=O)N[C@@H](Cc2c[nH]c3ccc(F)cc23)C(=O)N[C@@H](Cc2c[nH]c3ccc(F)cc23)C(=O)N[C@@H](CC(=O)O)C(=O)N[C@@H](Cc2cnc[nH]2)C(=O)N[C@@H](Cc2ccc(O)cc2)C1=O [Compound 194] ([Mpa]KG[Trp(5-F)][Trp(5-F)]DHY[Sar]C-NH2; linker 1-10 via mXylylene) |
| 21 to 50 µM | CC(=O)N[C@H]1CSCc2cccc(c2)CSC[C@@H](C(N)=O)NC(=O)[C@@H]2CCCN2C(=O)[C@H](Cc2ccc(O)cc2)NC(=O)[C@H](Cc2c[nH]cn2)NC(=O)[C@H](CC(=O)O)NC(=O)[C@H](Cc2c[nH]c3ccc(F)cc23)NC(=O)[C@H](Cc2c[nH]c3ccccc23)NC(=O)CNC(=O)[C@H](CCCCN)NC1=O [Compound 176] (Ac-CKGW[Trp(5-F)]DHYPC-NH2; linker 1-10 via mXylylene) |
| 1 to 12.1 µM | CC(=O)N[C@H]1CCC(=O)NCCC[C@@H](C(N)=O)NC(=O)[C@@H]2CCCN2C(=O)[C@H](Cc2ccc(O)cc2)NC(=O)[C@H](Cc2c[nH]cn2)NC(=O)[C@H](CC(=O)O)NC(=O)[C@H](Cc2c[nH]c3ccc(F)cc23)NC(=O)[C@H](Cc2c[nH]c3ccc(F)cc23)NC(=O)CNC(=O)[C@H](CCCCN)NC1=O [Compound 179] (Ac-EKG[Trp(5-F)][Trp(5-F)]DHYP[Orn]-NH2; lactam 1-10) |
| 21 to 50 µM | NCCCC[C@@H]1NC(=O)CCSCc2cccc(c2)CSC[C@@H](C(N)=O)NC(=O)[C@@H]2C[C@@H](C3CCCCC3)CN2C(=O)[C@H](Cc2ccc(O)cc2)NC(=O)[C@H](Cc2c[nH]cn2)NC(=O)[C@H](CC(=O)O)NC(=O)[C@H](Cc2c[nH]c3ccc(F)cc23)NC(=O)[C@H](Cc2c[nH]c3ccc(F)cc23)NC(=O)CNC1=O [Compound 304] ([Mpa]KG[Trp(5-F)][Trp(5-F)]DHY[Pro(trans-4-cHex)]C-NH2; linker 1-10 via mXylylene) |
| 0.1 to 1 µM | NCCCC[C@@H]1NC(=O)CCSCc2cccc(c2)CSC[C@@H](C(N)=O)NC(=O)[C@@H]2C[C@@H](Cc3ccccc3)CN2C(=O)[C@H](Cc2ccc(O)cc2)NC(=O)[C@H](Cc2c[nH]cn2)NC(=O)[C@H](CC(=O)O)NC(=O)[C@H](Cc2c[nH]c3ccc(F)cc23)NC(=O)[C@H](Cc2c[nH]c3ccc(F)cc23)NC(=O)CNC1=O [Compound 294] ([Mpa]KG[Trp(5-F)][Trp(5-F)]DHY[Pro(4R-Bn)]C-NH2; linker 1-10 via mXylylene) |
| 21 to 50 µM | CC(C)[C@H]1C(=O)N[C@H](C(N)=O)CSCc2cccc(c2)CSCCC(=O)N[C@@H](CCCCN)C(=O)NCC(=O)N[C@@H](Cc2c[nH]c3ccc(F)cc23)C(=O)N[C@@H](Cc2c[nH]c3ccc(F)cc23)C(=O)N[C@@H](CC(=O)O)C(=O)N[C@@H](Cc2cnc[nH]2)C(=O)N[C@@H](Cc2ccc(O)cc2)C(=O)N1C [Compound 220] ([Mpa]KG[Trp(5-F)][Trp(5-F)]DHY[NMeV]C-NH2; linker 1-10 via mXylylene) |
| 0.1 to 1 µM | C[C@H]1NC(=O)[C@H](Cc2c[nH]c3ccc(F)cc23)NC(=O)[C@H](Cc2c[nH]c3ccc(F)cc23)NC(=O)CNC(=O)[C@H](CCCCN)NC(=O)CCSCc2cccc(c2)CSC[C@@H](C(N)=O)NC(=O)[C@]2(C)CCCN2C(=O)[C@H](Cc2ccc(O)cc2)NC(=O)[C@H](Cc2cnc[nH]2)NC1=O [Compound 032] ([Mpa]KG[Trp(5-F)][Trp(5-F)][dA]HY[αMeP]C-NH2; linker 1-10 via mXylylene) |

Reference: US11530244B2, “Cyclic polypeptides for PCSK9 inhibition” (priority 2018, dated 2022)
